From ChEMBL document CHEMBL4321836, “Discovery of BAY-298 and BAY-899: Tetrahydro-1,6-naphthyridine-Based, Potent, and Selective Antagonists of the Luteinizing Hormone Receptor Which Reduce Sex Hormone Levels in Vivo” (J Med Chem, 2019)
pIC50: −log10 of the molar value. The source made the active and inactive calls. The calls are words filed in the database; no cut-off is given here.

What was measured:
[1] = Protein binding in human plasma assessed as unbound fraction; type: ADME, cell-free
[2] = Efflux ratio of apparent permeability from basolateral to apical over apical to basolateral side in human Caco2 cells at 2 uM after 2 hrs by LC-MS/MS analysis; type: ADME, cell-based; details: Caco-2
[3] = Clearance in rat liver microsomes at 1 uM measured after 2 to 60 mins in presence of glucose-6-phosphate by LC-MS/MS analysis; type: ADME, Microsome
Cytochrome P450 1A2 = Cytochrome P450 1A2 (Homo sapiens, UniProt P05177); assay: Inhibition of CYP1A2 in human liver microsomes using phenacetin as substrate by LC-MS/MS analysis; type: ADME
Sequence of Cytochrome P450 1A2 (P05177 whole entry): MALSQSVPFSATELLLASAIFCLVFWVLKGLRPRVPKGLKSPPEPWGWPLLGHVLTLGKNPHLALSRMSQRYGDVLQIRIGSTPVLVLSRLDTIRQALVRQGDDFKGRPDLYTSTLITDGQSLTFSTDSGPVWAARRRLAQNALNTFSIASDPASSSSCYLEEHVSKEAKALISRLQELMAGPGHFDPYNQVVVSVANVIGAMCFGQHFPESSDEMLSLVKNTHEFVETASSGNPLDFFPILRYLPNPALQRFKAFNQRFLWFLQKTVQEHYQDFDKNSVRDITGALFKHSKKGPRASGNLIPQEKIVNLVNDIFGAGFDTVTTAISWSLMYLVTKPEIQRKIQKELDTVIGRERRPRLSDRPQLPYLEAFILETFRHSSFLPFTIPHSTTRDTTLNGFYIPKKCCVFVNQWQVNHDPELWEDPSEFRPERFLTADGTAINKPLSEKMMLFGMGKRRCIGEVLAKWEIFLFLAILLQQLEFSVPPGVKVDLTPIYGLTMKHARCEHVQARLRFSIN

Cytochrome P450 2C9 = Cytochrome P450 2C9 (Homo sapiens, UniProt P11712); assay: Inhibition of CYP2C9 in human liver microsomes using diclofenac as substrate by LC-MS/MS analysis; type: ADME
Sequence of Cytochrome P450 2C9 (P11712 whole entry): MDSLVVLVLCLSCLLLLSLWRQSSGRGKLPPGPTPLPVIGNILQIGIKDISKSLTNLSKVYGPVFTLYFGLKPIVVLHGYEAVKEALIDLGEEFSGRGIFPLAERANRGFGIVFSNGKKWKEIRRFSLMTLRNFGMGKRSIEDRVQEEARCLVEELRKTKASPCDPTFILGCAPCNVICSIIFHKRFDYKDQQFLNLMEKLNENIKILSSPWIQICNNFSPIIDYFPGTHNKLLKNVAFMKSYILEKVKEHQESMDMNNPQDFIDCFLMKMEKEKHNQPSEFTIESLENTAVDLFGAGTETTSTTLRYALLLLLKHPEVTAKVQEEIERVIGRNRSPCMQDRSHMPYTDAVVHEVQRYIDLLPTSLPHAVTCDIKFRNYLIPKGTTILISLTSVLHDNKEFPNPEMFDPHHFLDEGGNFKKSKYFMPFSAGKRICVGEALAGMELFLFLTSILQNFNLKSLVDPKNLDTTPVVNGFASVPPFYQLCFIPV

Cytochrome P450 2D6 = Cytochrome P450 2D6 (Homo sapiens, UniProt P10635); assay: Inhibition of CYP2D6 in human liver microsomes using dextromethorphan as substrate by LC-MS/MS analysis; type: ADME
Sequence of Cytochrome P450 2D6 (P10635 whole entry): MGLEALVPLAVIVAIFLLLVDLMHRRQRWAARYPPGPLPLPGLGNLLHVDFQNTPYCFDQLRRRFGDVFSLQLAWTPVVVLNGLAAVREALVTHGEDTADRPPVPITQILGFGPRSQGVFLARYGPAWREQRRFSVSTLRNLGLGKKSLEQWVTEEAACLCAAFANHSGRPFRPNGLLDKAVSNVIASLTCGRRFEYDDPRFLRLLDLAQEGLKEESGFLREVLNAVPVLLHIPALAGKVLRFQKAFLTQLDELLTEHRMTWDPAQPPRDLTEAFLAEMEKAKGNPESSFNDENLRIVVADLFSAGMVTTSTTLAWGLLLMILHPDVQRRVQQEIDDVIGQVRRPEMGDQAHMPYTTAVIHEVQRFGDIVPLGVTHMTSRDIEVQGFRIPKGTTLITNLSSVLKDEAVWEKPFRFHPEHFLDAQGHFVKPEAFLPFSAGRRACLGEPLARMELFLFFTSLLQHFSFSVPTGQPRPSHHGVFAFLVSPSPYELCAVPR

Cytochrome P450 3A4 = Cytochrome P450 3A4 (Homo sapiens, UniProt P08684); assay: Inhibition of CYP3A4 in human liver microsomes using midazolam as substrate by LC-MS/MS analysis; type: ADME
Sequence of Cytochrome P450 3A4 (P08684 whole entry): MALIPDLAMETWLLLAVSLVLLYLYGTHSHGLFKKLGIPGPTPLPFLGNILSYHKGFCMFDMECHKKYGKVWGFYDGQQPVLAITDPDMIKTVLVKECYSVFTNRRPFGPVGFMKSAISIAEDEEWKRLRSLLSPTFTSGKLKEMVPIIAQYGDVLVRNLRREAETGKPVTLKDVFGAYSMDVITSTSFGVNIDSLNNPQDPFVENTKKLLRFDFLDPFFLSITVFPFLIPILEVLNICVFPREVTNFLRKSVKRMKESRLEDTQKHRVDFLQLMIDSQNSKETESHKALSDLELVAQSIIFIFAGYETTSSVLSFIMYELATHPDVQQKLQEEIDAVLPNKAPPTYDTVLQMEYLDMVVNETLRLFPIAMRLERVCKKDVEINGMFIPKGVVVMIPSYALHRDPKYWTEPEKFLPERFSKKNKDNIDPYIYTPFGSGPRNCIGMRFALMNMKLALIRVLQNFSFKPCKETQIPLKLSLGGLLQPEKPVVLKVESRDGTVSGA

[4] = Dose normalized AUC in Wistar rat at 0.5 mg/kg, iv after 2 to 72 hrs by LC-MS/MS analysis; type: ADME, organism-based; details: in vivo
[5] = Dose normalized Cmax in Wistar rat at 0.5 mg/kg, iv after 2 to 72 hrs by LC-MS/MS analysis; type: ADME, organism-based; details: in vivo
[6] = Clearance in Wistar rat at 0.5 mg/kg, iv after 2 to 72 hrs by LC-MS/MS analysis; type: ADME, organism-based; details: in vivo
[7] = Half life in Wistar rat at 0.5 mg/kg, iv after 2 to 72 hrs by LC-MS/MS analysis; type: ADME, organism-based; details: in vivo
[8] = Dose normalized AUC in Wistar rat at 2 mg/kg, po after 8 to 72 hrs by LC-MS/MS analysis; type: ADME, organism-based; details: in vivo
[9] = Tmax in Wistar rat at 2 mg/kg, po after 8 to 72 hrs by LC-MS/MS analysis; type: ADME, organism-based; details: in vivo
[10] = Oral bioavailability in Wistar rat at 2 mg/kg after 8 to 72 hrs by LC-MS/MS analysis; type: ADME, organism-based; details: in vivo
[11] = molecular target: T1, Adenosine receptor A3 (Homo sapiens) (UniProt P0DMS8); assay: Agonist activity at human A3 receptor expressed in CHO-K1 cells at 10 uM after 20 mins by HTRF assay relative to control; type: cell-based
T1 sequence (whole entry): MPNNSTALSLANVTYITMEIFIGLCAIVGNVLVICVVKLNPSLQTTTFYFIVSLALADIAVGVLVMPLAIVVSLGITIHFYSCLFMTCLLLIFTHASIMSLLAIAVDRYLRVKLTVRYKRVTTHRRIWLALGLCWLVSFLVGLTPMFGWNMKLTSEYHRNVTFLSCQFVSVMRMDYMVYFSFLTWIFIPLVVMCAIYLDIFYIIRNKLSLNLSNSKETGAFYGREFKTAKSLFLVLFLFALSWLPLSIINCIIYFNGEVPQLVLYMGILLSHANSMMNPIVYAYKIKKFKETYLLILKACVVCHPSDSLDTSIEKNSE

[12] = molecular target: D(1A) dopamine receptor (Homo sapiens) (UniProt P21728); assay: Antagonist activity at human D1 receptor expressed in CHO-K1 cells at 10 uM after 30 mins HTRF assay relative to control; type: cell-based; parameters: scale not given: the % may be the effect or the level left
Sequence of D(1A) dopamine receptor (Homo sapiens) (P21728 whole entry): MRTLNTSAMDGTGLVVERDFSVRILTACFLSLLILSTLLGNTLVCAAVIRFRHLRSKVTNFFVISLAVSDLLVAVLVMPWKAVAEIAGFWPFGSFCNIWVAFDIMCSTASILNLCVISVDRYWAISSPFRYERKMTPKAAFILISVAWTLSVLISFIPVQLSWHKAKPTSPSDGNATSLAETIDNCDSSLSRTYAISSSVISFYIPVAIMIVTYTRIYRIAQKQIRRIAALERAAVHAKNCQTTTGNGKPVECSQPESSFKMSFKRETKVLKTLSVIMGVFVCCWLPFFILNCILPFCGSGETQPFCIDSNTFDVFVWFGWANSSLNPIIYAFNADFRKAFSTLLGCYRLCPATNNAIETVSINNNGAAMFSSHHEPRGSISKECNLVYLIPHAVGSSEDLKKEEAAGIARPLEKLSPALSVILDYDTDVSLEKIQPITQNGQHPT

[13] = molecular target: D(2) dopamine receptor (Homo sapiens) (UniProt P14416); assay: Agonist activity at human Dopamine D2L receptor expressed in CHO-K1 cells at 10 uM by Fluorimetric analysis relative to control; type: cell-based
Sequence of D(2) dopamine receptor (Homo sapiens) (P14416 whole entry): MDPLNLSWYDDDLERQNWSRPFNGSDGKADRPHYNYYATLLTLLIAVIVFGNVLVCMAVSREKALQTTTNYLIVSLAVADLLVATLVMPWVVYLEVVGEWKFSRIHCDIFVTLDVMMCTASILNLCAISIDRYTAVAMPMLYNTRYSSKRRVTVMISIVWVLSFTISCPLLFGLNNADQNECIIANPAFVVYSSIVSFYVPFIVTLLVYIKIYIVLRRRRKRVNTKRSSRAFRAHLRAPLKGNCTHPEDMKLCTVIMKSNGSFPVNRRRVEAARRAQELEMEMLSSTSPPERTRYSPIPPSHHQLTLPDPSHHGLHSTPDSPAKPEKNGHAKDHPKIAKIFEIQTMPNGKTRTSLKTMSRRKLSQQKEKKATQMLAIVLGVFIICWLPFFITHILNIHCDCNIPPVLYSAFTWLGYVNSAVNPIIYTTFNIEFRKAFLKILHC

[14] = molecular target: D(2) dopamine receptor (Homo sapiens) (UniProt P14416); assay: Antagonist activity at human Dopamine D2L receptor expressed in CHO-K1 cells at 10 uM by Fluorimetric analysis relative to control; type: cell-based; parameters: scale not given: the % may be the effect or the level left
[15] = molecular target: Motilin receptor (Homo sapiens) (UniProt O43193); assay: Antagonist activity at human Motilin receptor expressed in CHO-K1 cells at 10 uM by fluorimetric method relative to control; type: cell-based; parameters: scale not given: the % may be the effect or the level left
Sequence of Motilin receptor (Homo sapiens) (O43193 whole entry): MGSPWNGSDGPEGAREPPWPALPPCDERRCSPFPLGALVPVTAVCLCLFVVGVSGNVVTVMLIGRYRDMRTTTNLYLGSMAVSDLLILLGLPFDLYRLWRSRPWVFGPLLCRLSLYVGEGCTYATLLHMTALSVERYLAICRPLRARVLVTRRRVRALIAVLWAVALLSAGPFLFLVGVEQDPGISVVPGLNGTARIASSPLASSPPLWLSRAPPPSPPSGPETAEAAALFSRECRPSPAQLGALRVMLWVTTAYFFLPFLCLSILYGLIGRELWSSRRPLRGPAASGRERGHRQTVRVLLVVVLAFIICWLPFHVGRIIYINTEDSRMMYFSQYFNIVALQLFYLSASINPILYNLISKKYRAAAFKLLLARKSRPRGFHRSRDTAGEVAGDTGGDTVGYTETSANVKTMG

[16] = molecular target: Substance-P receptor (Homo sapiens) (UniProt P25103); assay: Antagonist activity at human NK1 receptor expressed in U373 MG cells at 10 uM by fluorimetric method relative to control; type: cell-based; parameters: scale not given: the % may be the effect or the level left; details: U-373MG ATCC
Sequence of Substance-P receptor (Homo sapiens) (P25103 whole entry): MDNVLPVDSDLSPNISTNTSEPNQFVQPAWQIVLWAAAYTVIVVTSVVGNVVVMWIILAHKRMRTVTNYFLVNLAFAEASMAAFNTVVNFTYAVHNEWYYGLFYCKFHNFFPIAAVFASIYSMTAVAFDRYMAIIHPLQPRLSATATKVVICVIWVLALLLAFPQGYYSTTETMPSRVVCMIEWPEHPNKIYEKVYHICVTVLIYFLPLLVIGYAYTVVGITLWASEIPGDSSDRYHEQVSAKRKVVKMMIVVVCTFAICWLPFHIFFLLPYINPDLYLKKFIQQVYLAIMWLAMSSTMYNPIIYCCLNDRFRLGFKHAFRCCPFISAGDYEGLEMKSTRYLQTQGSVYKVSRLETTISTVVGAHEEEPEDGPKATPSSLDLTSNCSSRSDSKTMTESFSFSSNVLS

[17] = molecular target: Mu-type opioid receptor (Homo sapiens) (UniProt P35372); assay: Antagonist activity at human mu opioid receptor expressed in CHO-K1 cells at 10 uM after 10 mins by HTRF assay relative to control; type: cell-based; parameters: scale not given: the % may be the effect or the level left
Sequence of Mu-type opioid receptor (Homo sapiens) (P35372 whole entry): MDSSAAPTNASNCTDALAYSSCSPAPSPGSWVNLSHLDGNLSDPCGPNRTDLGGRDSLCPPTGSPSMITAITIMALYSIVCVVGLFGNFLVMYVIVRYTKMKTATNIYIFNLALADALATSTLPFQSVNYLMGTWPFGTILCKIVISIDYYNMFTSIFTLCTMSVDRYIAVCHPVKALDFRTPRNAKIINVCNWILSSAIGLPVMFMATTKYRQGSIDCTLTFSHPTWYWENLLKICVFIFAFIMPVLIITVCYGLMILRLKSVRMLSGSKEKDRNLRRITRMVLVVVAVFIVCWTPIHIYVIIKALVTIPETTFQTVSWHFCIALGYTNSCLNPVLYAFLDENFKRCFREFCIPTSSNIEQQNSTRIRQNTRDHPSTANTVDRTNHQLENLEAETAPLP

[18] = molecular target: P2Y purinoceptor 2 (Homo sapiens) (UniProt P41231); assay: Agonist activity at human P2Y2 receptor expressed in human 1321N1 cells at 10 uM by fluorimetric method relative to control; type: cell-based
Sequence of P2Y purinoceptor 2 (Homo sapiens) (P41231 whole entry): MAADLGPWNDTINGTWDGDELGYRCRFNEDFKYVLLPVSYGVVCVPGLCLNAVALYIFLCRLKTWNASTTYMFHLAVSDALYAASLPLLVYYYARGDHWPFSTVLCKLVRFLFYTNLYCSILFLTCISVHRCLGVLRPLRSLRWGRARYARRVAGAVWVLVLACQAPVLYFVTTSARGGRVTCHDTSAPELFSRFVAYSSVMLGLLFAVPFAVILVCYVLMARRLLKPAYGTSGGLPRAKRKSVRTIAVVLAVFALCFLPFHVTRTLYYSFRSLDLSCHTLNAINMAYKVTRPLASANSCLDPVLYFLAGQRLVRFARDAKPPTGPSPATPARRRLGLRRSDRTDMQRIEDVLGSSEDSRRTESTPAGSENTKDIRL

[19] = molecular target: T2, 5-hydroxytryptamine receptor 1A (Homo sapiens) (UniProt P08908); assay: Agonist activity at human 5-HT1A receptor expressed in mouse BA/F3 cells at 10 uM by fluorimetric method relative to control; type: cell-based
T2 sequence (whole entry): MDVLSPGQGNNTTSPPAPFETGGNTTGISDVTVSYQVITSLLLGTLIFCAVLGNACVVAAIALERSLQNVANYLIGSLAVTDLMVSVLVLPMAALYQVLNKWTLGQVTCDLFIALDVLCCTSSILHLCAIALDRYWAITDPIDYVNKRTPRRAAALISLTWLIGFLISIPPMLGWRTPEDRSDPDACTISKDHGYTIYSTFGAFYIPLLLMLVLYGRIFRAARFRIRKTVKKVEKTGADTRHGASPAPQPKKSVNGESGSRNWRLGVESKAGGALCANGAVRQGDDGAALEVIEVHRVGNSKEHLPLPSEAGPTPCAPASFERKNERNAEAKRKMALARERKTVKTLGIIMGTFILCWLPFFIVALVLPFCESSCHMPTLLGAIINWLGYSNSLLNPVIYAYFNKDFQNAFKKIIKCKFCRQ

[20] = molecular target: 5-hydroxytryptamine receptor 2B (Homo sapiens) (UniProt P41595); assay: Agonist activity at human 5-HT2B receptor expressed in CHO-K1 cells at 10 uM after 30 mins by HTRF assay relative to control; type: cell-based
Sequence of 5-hydroxytryptamine receptor 2B (Homo sapiens) (P41595 whole entry): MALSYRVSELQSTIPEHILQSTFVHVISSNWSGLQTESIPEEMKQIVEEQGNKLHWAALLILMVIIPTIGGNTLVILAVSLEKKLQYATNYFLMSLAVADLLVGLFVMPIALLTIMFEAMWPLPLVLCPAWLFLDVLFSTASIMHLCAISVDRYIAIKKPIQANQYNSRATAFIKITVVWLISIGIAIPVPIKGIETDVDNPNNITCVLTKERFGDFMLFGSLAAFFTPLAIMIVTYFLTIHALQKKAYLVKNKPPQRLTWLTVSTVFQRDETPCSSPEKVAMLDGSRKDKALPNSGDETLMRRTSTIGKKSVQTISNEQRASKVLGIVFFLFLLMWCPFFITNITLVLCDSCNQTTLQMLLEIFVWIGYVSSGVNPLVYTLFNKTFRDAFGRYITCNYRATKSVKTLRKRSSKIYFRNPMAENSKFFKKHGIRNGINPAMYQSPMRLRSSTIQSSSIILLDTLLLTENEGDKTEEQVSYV

Rattus norvegicus = assay: Induction of long-term effect on estrus cycle in 4 day cycle of normally cycling female rat assessed as changes in vaginal smears at 12.5 mg/kg, po administered once daily for 8 days; type: functional, organism-based
[21] = Plasma concentration in female rat at 12.5 mg/kg, po administered once daily for 8 days and measured on day 8; type: ADME, organism-based

Compound | fraction unbound [1] | efflux ratio at 2 h, 2 µM [2] | CLH [3] [mL/min/kg] | pIC50 (Cytochrome P450 1A2) | pIC50 (Cytochrome P450 2C9) | pIC50 (Cytochrome P450 2D6) | pIC50 (Cytochrome P450 3A4) | AUC/dose [4] [kg·h/L] | Cmax/dose [5] [kg/L] | clearance [6] [mL/min/kg] | half-life [7] [h] | AUC/dose [8] [kg·h/L] | Tmax [9] [h] | bioavailability [10] [%] | Activity [11] [%] | Activity [12] [%] | Activity [13] [%] | Activity [14] [%] | Activity [15] [%] | Activity [16] [%] | other results
O=C(Nc1ccc(Oc2ccc(F)cc2)cc1)N1CCc2ncccc2[C@@H]1c1ccc(Cl)cc1 | 0.002 | 1.3 | 3.3 | < 4.70 | 5.36 | < 4.70 | < 4.70 | 9.4 | 0.97 | 1.83 | 11 | 7.8 | 24 | 83 | < 70 | < 70 | < 70 | < 70 | < 70 | < 70 | Activity [17]: < 70%; Activity [18]: < 70%; Activity [19]: < 70%; Activity [20]: < 70%; Activity (Rattus norvegicus): Active; concentration at 192 h [21]: 7 µM
O=C(Nc1cnc(Oc2ccc(F)cc2)nc1)N1CCc2ncccc2[C@@H]1c1ccc(F)cc1 [BAY-899] | 0.017 | 1.1 | 3.3 | < 4.70 | 5.00 | < 4.70 | < 4.70 | 2.5 | 0.28 | 6.83 | 31 | 2.7 | 8 | 108 | < 70 | < 70 | < 70 | < 70 | < 70 | < 70 | Activity [17]: < 70%; Activity [18]: < 70%; Activity [19]: < 70%; Activity [20]: < 70%; Activity (Rattus norvegicus): Active; concentration at 192 h [21]: 34 µM
